# Laboratory results as given in ChEMBL document CHEMBL1127438, “Substituted (S)-phenylpiperidines and rigid congeners as preferential dopamine autoreceptor antagonists: synthesis and structure-activity relationships” (J Med Chem, 1994).
# Key:
# D(2) dopamine receptor [1] = molecular target: T1, D(2) dopamine receptor (Homo sapiens, UniProt P14416); assay: biochemical
# Description: Affinity against recombinant dopamine receptor (DA) D2 expressed in CHO-K1 cells, using [3H]-spiperone as radioligand
# D(2) dopamine receptor [2] = molecular target: T2, D(2) dopamine receptor (Rattus norvegicus, UniProt P61169)
# Description: Affinity against striatal dopamine D2 receptors using [3H]spiperone as radioligand in rats.
# D(2) dopamine receptor [3] = molecular target: T1, D(2) dopamine receptor; assay: biochemical; remark: listed apart in the source
# Description: In vitro binding affinity against cloned mammalian dopamine D2 autoreceptor, expressed in CHO-K1 cells, using [3H]U-86170 as radioligand
# Rattus norvegicus [4] = assay: Evaluated for DOPAC level in nonpretreated habituated rats after subcuteneous dose of 100 micro mol/kg in rat striatum; assay type: functional
# Rattus norvegicus [5] = assay: Evaluated for DOPA accumulation (DOPAacc) level in nonhabituated rats after subcuteneous dose (100 uM/kg) in rat striatum; assay type: functional
# Rattus norvegicus [6] = assay: Evaluated biochemically in nonhabituated rats for (100 umol/kg) subcuteneous dose, Value expressed as locomotor activity (LMA); assay type: functional
# D(3) dopamine receptor [7] = molecular target: T3, D(3) dopamine receptor (Homo sapiens, UniProt P35462); assay: Tested for in vitro binding affinity against cloned mammalian dopamine D3 receptor, expressed in CHO-K1 cells, using [3H]spiperone as radioligand; assay type: cell-based
# Rattus norvegicus [8] = assay: Evaluated biochemically in nonpretreated habituated rats for (100 uM/kg) subcuteneous dose, Value expressed as locomotor activity (LMA); assay type: functional
# Rattus norvegicus [9] = assay: Evaluated biochemically in reserpine-pretreated habituated rats for (100 umol/kg) subcuteneous dose in rat striatum (DOPAacc), Value expressed as counts/30 min; assay type: functional
# Rattus norvegicus [10] = species: Rattus norvegicus; assay: Tested in vio for concomitant ability to antagonize the locomotor activity of rat induced by Di-Pr-5,6-ADTN, Value expressed as locomotor activity (LMA), % of control; assay type: functional; parameters: scale not given: the % may be the effect or the level left
# Rattus norvegicus [11] = assay: Evaluated biochemically in reserpine-pretreated habituated rats for (100 umol/kg) subcuteneous dose, Value expressed as locomotor activity (LMA); assay type: functional
# Rattus norvegicus [12] = assay: Effect of (60 min after administration of 200 (uM/kg) subcuteneous dose on DA release in brain dialysis model of rat striatum; Values expressed as percent of saline controls; assay type: functional
# Rattus norvegicus [13] = assay: Tested in vivo for its ability to displace DA receptor agonist (Di-Pr-5,6-ADTN) from rat striatal binding sites at 0.25 uM/Kg sc. dose (after subtraction of cerebellum levels); assay type: functional
# Rattus norvegicus [14] = assay: Evaluated for biochemical levels of DOPAC in nonpretreated habituated rats for subcuteneous dose of 100 micro mol/kg in rat striatum; assay type: functional
# Rattus norvegicus [15] = assay: Evaluated for DOPA accumulation in nonhabituated rats at 100 umol/kg of subcuteneous dose in rat striatum; assay type: functional
# Rattus norvegicus [16] = assay: Effect (60 min after administration of 200 (micro mol/kg) subcuteneous dose on DA release in brain dialysis model of rat; assay type: functional
# D(2) dopamine receptor [17] = molecular target: T2, D(2) dopamine receptor; assay: Tested for affinity against striatal dopamine autoreceptor (DA) D2 receptors using [3H]spiperone as radioligand in rats.
# D(3) dopamine receptor [18] = molecular target: T3, D(3) dopamine receptor; assay: Tested for in vitro binding affinity against cloned mammalian dopamine autoreceptor (DA) receptors expressed in CHO-K1 cells [3H]-spiperone as radioligand; assay type: cell-based
# Rattus norvegicus [19] = assay: Evaluated for locomotor activity in nonpretreated habituated rats in 100 umol/kg of subcuteneous dose; assay type: functional; parameters: unit not given here
# Dopamine receptor = assay: Tested for in vitro binding affinity against cloned mammalian dopamine autoreceptor (DA) receptors expressed in CHO-K1 cells using [3H]U-86170 as radioligand; assay type: cell-based
# Rattus norvegicus [20] = assay: Compound is evaluated for DOPA accumulation in reserpine-pretreated habituated rats at 100 umol/kg of subcuteneous dose in rat striatum; assay type: functional
# Rattus norvegicus [21] = assay: Compound is evaluated for locomotor activity in reserpine-pretreated habituated rats at 100 umol/kg of subcuteneous dose; assay type: functional
# Rattus norvegicus [22] = assay: Effect (60 min after administration of 200 (micro mol/kg) subcuteneous dose on DA release in brain dialysis model of rat striatum; assay type: functional
# Rattus norvegicus [23] = assay: Evaluated for locomotor activity in nonpretreated habituated rats at 100 umol/kg of subcuteneous dose; assay type: functional; parameters: unit not given here
# Rattus norvegicus [24] = assay: Compound is evaluated for locomotor activity in nonhabituated rats at 100 umol/kg of subcuteneous dose; assay type: functional
# Rattus norvegicus [25] = assay: Compound is evaluated biochemically in nonhabituated rats for (100 umol/kg) subcuteneous dose, Value expressed as locomotor activity (LMA); assay type: functional
# T2 sequence (P61169 whole entry): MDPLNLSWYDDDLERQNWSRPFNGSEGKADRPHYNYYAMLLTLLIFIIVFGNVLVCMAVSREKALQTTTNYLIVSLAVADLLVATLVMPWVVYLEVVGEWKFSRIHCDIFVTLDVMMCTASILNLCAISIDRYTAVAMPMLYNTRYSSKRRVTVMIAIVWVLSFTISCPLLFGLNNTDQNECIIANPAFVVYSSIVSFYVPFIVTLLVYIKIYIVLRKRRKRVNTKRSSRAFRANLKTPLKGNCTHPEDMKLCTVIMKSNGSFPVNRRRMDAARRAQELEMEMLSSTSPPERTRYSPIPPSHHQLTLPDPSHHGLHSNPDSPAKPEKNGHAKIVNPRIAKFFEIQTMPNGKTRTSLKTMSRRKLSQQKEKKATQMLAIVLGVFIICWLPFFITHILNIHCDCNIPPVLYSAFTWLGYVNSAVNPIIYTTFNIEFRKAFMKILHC
# T3 sequence (P35462 whole entry): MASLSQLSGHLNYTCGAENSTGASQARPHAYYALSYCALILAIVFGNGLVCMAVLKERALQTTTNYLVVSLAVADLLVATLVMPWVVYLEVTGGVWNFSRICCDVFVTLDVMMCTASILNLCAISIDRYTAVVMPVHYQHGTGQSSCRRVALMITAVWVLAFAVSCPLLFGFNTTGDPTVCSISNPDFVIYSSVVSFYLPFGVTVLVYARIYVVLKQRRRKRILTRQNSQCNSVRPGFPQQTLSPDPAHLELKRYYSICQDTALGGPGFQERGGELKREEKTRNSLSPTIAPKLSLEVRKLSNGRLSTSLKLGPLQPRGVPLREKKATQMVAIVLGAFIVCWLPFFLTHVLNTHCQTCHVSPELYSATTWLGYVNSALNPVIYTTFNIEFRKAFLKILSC
# T1 sequence (P14416 whole entry): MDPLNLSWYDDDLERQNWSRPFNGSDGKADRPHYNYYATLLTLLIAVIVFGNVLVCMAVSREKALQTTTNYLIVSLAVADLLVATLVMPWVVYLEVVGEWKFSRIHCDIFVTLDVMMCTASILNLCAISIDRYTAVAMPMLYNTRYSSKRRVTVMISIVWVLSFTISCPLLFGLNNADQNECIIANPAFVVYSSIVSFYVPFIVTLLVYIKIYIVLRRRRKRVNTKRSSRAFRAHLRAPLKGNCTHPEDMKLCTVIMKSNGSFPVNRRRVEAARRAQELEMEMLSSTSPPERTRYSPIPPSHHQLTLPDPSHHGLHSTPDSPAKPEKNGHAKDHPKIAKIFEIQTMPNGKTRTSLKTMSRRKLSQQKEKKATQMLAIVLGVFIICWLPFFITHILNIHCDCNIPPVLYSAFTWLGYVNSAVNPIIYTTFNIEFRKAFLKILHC
SMILES,Ki (D(2) dopamine receptor [1]),Ki (D(2) dopamine receptor [2]),Ki (D(2) dopamine receptor [3]),Activity (Rattus norvegicus [4]),Ki (D(3) dopamine receptor [7]),Control (Rattus norvegicus [8]),also measured
CN1CCC[C@@H](c2cccc(C#N)c2)C1,> 217 nM,8330 nM,1040 nM,174%,1760 nM,–,Activity (Rattus norvegicus [5]): 215%; Locomotor activity (% of control) (Rattus norvegicus [6]): 79%
N#Cc1cccc([C@@H]2CCCN(CC3CC3)C2)c1,> 217 nM,–,519 nM,–,522 nM,–,Locomotor activity (% of control) (Rattus norvegicus [6]): 191%
CC(C)N1CCC[C@@H](c2cccc(C#N)c2)C1,> 217 nM,717 nM,106 nM,–,268 nM,366%,Activity (Rattus norvegicus [5]): 301%; Locomotor activity (% of control) (Rattus norvegicus [6]): 102%
C=CCN1CCC[C@@H](c2cccc(C#N)c2)C1,> 217 nM,1890 nM,254 nM,–,658 nM,–,Activity (Rattus norvegicus [9]): 85%; Control (Rattus norvegicus [10]): 46%; Control (Rattus norvegicus [11]): 3%; Activity (Rattus norvegicus [5]): 257%; Locomotor activity (% of control) (Rattus norvegicus [6]): 143%; Activity (Rattus norvegicus [12]): 522%; Control (Rattus norvegicus [13]): 59%
CCN1CCC[C@@H](c2cccc(OS(=O)(=O)C(F)(F)F)c2)C1,> 217 nM,–,–,–,–,–,Activity (Rattus norvegicus [14]): 300%; Activity (Rattus norvegicus [15]): 286%; Activity (Rattus norvegicus [16]): 120%; Ki (D(2) dopamine receptor [17]): 1180 nM
C=CCN1CC[C@@H]2c3cccc(OS(=O)(=O)C(F)(F)F)c3CC[C@@H]21 (stereo in doubt; 49),> 217 nM,–,–,–,–,–,Activity (Rattus norvegicus [14]): 108%; Ki (D(2) dopamine receptor [17]): > 172 nM; Ki (D(3) dopamine receptor [18]): 173 nM; LMA (Rattus norvegicus [19]): 116; Ki (Dopamine receptor): 353 nM
CCCN1CCC[C@@H](c2cccc(NS(=O)(=O)C(F)(F)F)c2)C1,> 217 nM,–,–,91%,> 2000 nM,305%,–
N#Cc1cccc([C@@H]2CCCN(CCc3ccccc3)C2)c1,> 217 nM,105 nM,22 nM,–,59 nM,510%,Activity (Rattus norvegicus [5]): 176%; Locomotor activity (% of control) (Rattus norvegicus [6]): 120%
CCC(C)N1CCC[C@@H](c2cccc(C#N)c2)C1 (some centres not stated),98 nM,1050 nM,187 nM,267%,105 nM,346%,Control (Rattus norvegicus [10]): 56%; Activity (Rattus norvegicus [12]): 256%; Control (Rattus norvegicus [13]): 59%
CCCN1CCC[C@@H](c2cccc(-c3ccsc3)c2)C1,> 217 nM,760 nM,134 nM,88%,78 nM,229%,Activity (Rattus norvegicus [12]): 106%
CCCN1CCC[C@@H](c2cccc(Br)c2)C1,170 nM,–,–,–,–,–,Activity (Rattus norvegicus [20]): 101%; Activity (Rattus norvegicus [14]): 145%; Activity (Rattus norvegicus [15]): 199%; Ki (D(2) dopamine receptor [17]): 533 nM; LMA (Rattus norvegicus [21]): 15; Activity (Rattus norvegicus [22]): 363%; Ki (D(3) dopamine receptor [18]): 171 nM; LMA (Rattus norvegicus [23]): 470; Ki (Dopamine receptor): 106 nM; LMA (Rattus norvegicus [24]): 140
CCCN[C@@H]1CCc2c(OC)cccc2[C@@H]1C,–,–,–,346%,–,354%,–
N#Cc1cccc([C@@H]2CCCN(CCCc3ccccc3)C2)c1,60 nM,80 nM,29 nM,280%,36 nM,484%,–
CCCN1CCC[C@@H](c2cccc(CO)c2)C1,> 217 nM,410 nM,240 nM,138%,1460 nM,187%,Activity (Rattus norvegicus [9]): 50%; Control (Rattus norvegicus [25]): 123%; Control (Rattus norvegicus [11]): 3%; Activity (Rattus norvegicus [5]): 118%; Activity (Rattus norvegicus [12]): 175%
C#CCN1CCC[C@@H](c2cccc(C#N)c2)C1,> 217 nM,> 15000 nM,1180 nM,146%,> 1360 nM,297%,–
CCCN1CCCC2c3cccc(OS(=O)(=O)C(F)(F)F)c3CCC21 (stereo in doubt; 45),–,–,–,–,–,–,Activity (Rattus norvegicus [14]): 94%; Ki (D(2) dopamine receptor [17]): > 453 nM; Ki (D(3) dopamine receptor [18]): 587 nM; LMA (Rattus norvegicus [19]): 266; Ki (Dopamine receptor): 744 nM
C=CCN1CCC2c3cccc(C(N)=O)c3CCC21 (configuration not stated),> 217 nM,> 172 nM,> 1500 nM,–,> 1500 nM,–,–
